In patent US20260285850A1, “SUBSTITUTED OXAZOLIDINONES AND IMIDAZOLINONES AS HERBICIDES” (FMC CORPORATION, priority 2023, published 2026):

How the values were obtained:
Format in all cases: in vivo
[1] = system: barnyardgrass (Echinochloa crus-galli); assay: Test A preemergence soil spray, visual injury rating 0-100; settings: 10 days, 0 = no effect, 100 = complete control
Description: (§1) Seeds of plant species selected from barnyardgrass (Echinochloa crus-galli), blackgrass (Alopecurus myosuroides), corn (Zea mays), foxtail, giant (giant foxtail, Setaria faberi), green foxtail (Setaria viridis), goosegrass (Eleusine indica), kochia (Bassia scoparia), oat, wild (wild oat, Avena fatua), palmer (palmer amaranth, palmer pigweed, Amaranthus palmeri), ragweed (common ragweed, Ambrosia artemisiifolia), ryegrass, Italian (italian ryegrass, Lolium multiflorum), soybean (Glycine max) and wheat (Triticum aestivum) were planted into a blend of loam soil and sand and treated preemergence with a directed soil spray using test chemicals formulated in a non-phytotoxic solvent mixture which included a surfactant.
(§2) At the same time, plants selected from these crops and weed species and also galium (catchweed bedstraw, Galium aparine) and horseweed (Erigeron canadensis) were planted in pots containing the same blend of loam soil and sand and treated with postemergence applications of test chemicals formulated in the same manner. Plants ranged in height from 2 to 10 cm and were in the one- to two-leaf stage for the postemergence treatment. Treated plants and untreated controls were maintained in a greenhouse for 10 days, after which time all treated plants were compared to untreated controls and visually evaluated for injury. Plant response ratings, summarized in Table A, are based on a 0 to 100 scale where 0 is no effect and 100 is complete control. A dash (-) response means no test result.

[2] = system: blackgrass (Alopecurus myosuroides); assay: as above; settings: 10 days, 0 = no effect, 100 = complete control
Description: as §1, §2

[3] = system: corn (Zea mays); assay: as above; settings: 10 days, 0 = no effect, 100 = complete control
Description: as §1, §2

[4] = system: green foxtail (Setaria viridis); assay: as above; settings: 10 days, 0 = no effect, 100 = complete control
Description: as §1, §2

[5] = system: kochia (Bassia scoparia); assay: as above; settings: 10 days, 0 = no effect, 100 = complete control
Description: as §1, §2

[6] = system: oat, wild (wild oat, Avena fatua); assay: as above; settings: 10 days, 0 = no effect, 100 = complete control
Description: as §1, §2

[7] = system: palmer (palmer amaranth, palmer pigweed, Amaranthus palmeri); assay: as above; settings: 10 days, 0 = no effect, 100 = complete control
Description: as §1, §2

[8] = system: ragweed (common ragweed, Ambrosia artemisiifolia); assay: as above; settings: 10 days, 0 = no effect, 100 = complete control
Description: as §1, §2

[9] = system: ryegrass, Italian (italian ryegrass, Lolium multiflorum); assay: as above; settings: 10 days, 0 = no effect, 100 = complete control
Description: as §1, §2

[10] = system: soybean (Glycine max); assay: as above; settings: 10 days, 0 = no effect, 100 = complete control
Description: as §1, §2

[11] = system: wheat (Triticum aestivum); assay: as above; settings: 10 days, 0 = no effect, 100 = complete control
Description: as §1, §2

[12] = system: barnyardgrass (Echinochloa crus-galli); assay: Test A postemergence application, visual injury rating 0-100; settings: 10 days
Description: as §1, §2

[13] = system: blackgrass (Alopecurus myosuroides); assay: as above; settings: 10 days
Description: as §1, §2

[14] = system: corn (Zea mays); assay: as above; settings: 10 days
Description: as §1, §2

[15] = system: green foxtail (Setaria viridis); assay: as above; settings: 10 days
Description: as §1, §2

[16] = system: horseweed (Erigeron canadensis); assay: as above; settings: 10 days
Description: as §1, §2

[17] = system: kochia (Bassia scoparia); assay: as above; settings: 10 days
Description: as §1, §2

[18] = system: oat, wild (wild oat, Avena fatua); assay: as above; settings: 10 days
Description: as §1, §2

[19] = system: palmer (palmer amaranth, palmer pigweed, Amaranthus palmeri); assay: as above; settings: 10 days
Description: as §1, §2

[20] = system: ragweed (common ragweed, Ambrosia artemisiifolia); assay: as above; settings: 10 days
Description: as §1, §2

[21] = system: ryegrass, Italian (italian ryegrass, Lolium multiflorum); assay: as above; settings: 10 days
Description: as §1, §2

[22] = system: soybean (Glycine max); assay: as above; settings: 10 days
Description: as §1, §2

[23] = system: wheat (Triticum aestivum); assay: as above; settings: 10 days
Description: as §1, §2

[24] = system: barnyardgrass (Echinochloa crusgalli); assay: Test B flooded paddy test, visual plant response rating 0-100; settings: 250 g ai/ha, Flood, applied to paddy water, evaluated after 13 days
Protocol: (§3) Plant species in the flooded paddy test selected from barnyardgrass (Echinochloa crusgalli), ducksalad (Heteranthera limosa), rice (Oryza sativa), and sedge, umbrella (small-flower umbrella sedge, Cyperus difformis) were grown to the 2-leaf stage for testing. At time of treatment, test pots were flooded to 3 cm above the soil surface, treated by application of test compounds directly to the paddy water, and then maintained at that water depth for the duration of the test. Treated plants and controls were maintained in a greenhouse for 13 days, after which time all species were compared to controls and visually evaluated. […] A dash (-) response means no test result.

[25] = system: ducksalad (Heteranthera limosa); assay: as above; settings: 250 g ai/ha, Flood, applied to paddy water, evaluated after 13 days
Protocol: as §3

[26] = system: rice (Oryza sativa); assay: as above; settings: 250 g ai/ha, Flood, applied to paddy water, evaluated after 13 days
Protocol: as §3

[27] = system: sedge, umbrella (small-flower umbrella sedge, Cyperus difformis); assay: as above; settings: 250 g ai/ha, Flood, applied to paddy water, evaluated after 13 days
Protocol: as §3

[28] = 31 g ai/ha, postemergence, 0 = no effect, 100 = complete control
[29] = Postemergence, 125 g ai/ha, 0 is no effect, 100 is complete control

## COC(=O)C1=CC[C@H](NC(=O)C2(C)CN(c3cc(F)cc(F)c3)C(=O)O2)C1 (mixture of isomers) [Compound 37, Methyl (4S)-4-[[[3-(3,5-difluorophenyl)-5-methyl-2-oxo-5-oxazolidinyl]carbonyl]amino]-1-cyclopentene-1-carboxylate]
[1]; 31 g ai/ha
  Barnyardgrass plant response rating (0-100): 30
[1]; 125 g ai/ha
  Barnyardgrass plant response rating (0 to 100 scale): 90
[2]; 31 g ai/ha
  Blackgrass plant response rating (0-100): 0
[2]; 125 g ai/ha
  Blackgrass plant response rating (0 to 100 scale): 20
[3]; 31 g ai/ha
  Corn plant response rating (0-100): 10
[3]; 125 g ai/ha
  Corn plant response rating (0 to 100 scale): 80
[4]; 31 g ai/ha
  Foxtail, Green plant response rating (0-100): 0
[4]; 125 g ai/ha
  Foxtail, Green plant response rating (0 to 100 scale): 90
[5]; 31 g ai/ha
  Kochia plant response rating (0-100): 0
[5]; 125 g ai/ha
  Kochia plant response rating (0 to 100 scale): 20
[6]; 31 g ai/ha
  Oat, Wild plant response rating (0-100): 20
[6]; 125 g ai/ha
  Oat, Wild plant response rating (0 to 100 scale): 60
[7]; 31 g ai/ha
  Amaranth, Palmer plant response rating (0-100): 10
[7]; 125 g ai/ha
  Amaranth, Palmer plant response rating (0 to 100 scale): 80
[8]; 31 g ai/ha
  Ragweed plant response rating (0-100): 60
[8]; 125 g ai/ha
  Ragweed plant response rating (0 to 100 scale): 0
[9]; 31 g ai/ha
  Ryegrass, Italian plant response rating (0-100): 70
[9]; 125 g ai/ha
  Ryegrass, Italian plant response rating (0 to 100 scale): 90
[10]; 31 g ai/ha
  Soybean plant response rating (0-100): 10
[10]; 125 g ai/ha
  Soybean plant response rating (0 to 100 scale): 70
[11]; 31 g ai/ha
  Wheat plant response rating (0-100): 40
[11]; 125 g ai/ha
  Wheat plant response rating (0 to 100 scale): 80
[12]; [28]
  Barnyardgrass plant response rating (0-100): 100
[12]; [29]
  Barnyardgrass plant response rating (0 to 100 scale): 100
[13]; [28]
  Blackgrass plant response rating (0-100): 80
[13]; [29]
  Blackgrass plant response rating (0 to 100 scale): 90
[14]; [28]
  Corn plant response rating (0-100): 100
[14]; [29]
  Corn plant response rating (0 to 100 scale): 100
[15]; [28]
  Foxtail, Green plant response rating (0-100): 90
[15]; [29]
  Foxtail, Green plant response rating (0 to 100 scale): 90
[16]; [28]
  Horseweed plant response rating (0-100): 10
[16]; [29]
  Horseweed plant response rating (0 to 100 scale): 70
[17]; [28]
  Kochia plant response rating (0-100): 80
[17]; [29]
  Kochia plant response rating (0 to 100 scale): 80
[18]; [28]
  Oat, Wild plant response rating (0-100): 90
[18]; [29]
  Oat, Wild plant response rating (0 to 100 scale): 90
[19]; [28]
  Amaranth, Palmer plant response rating (0-100): 70
[19]; [29]
  Amaranth, Palmer / Pigweed, Palmer plant response rating (0 to 100 scale): 90
[20]; [28]
  Ragweed plant response rating (0-100): 20
[20]; [29]
  Ragweed plant response rating (0 to 100 scale): 50
[21]; [28]
  Ryegrass, Italian plant response rating (0-100): 80
[21]; [29]
  Ryegrass, Italian plant response rating (0 to 100 scale): 90
[22]; [28]
  Soybean plant response rating (0-100): 70
[22]; [29]
  Soybean plant response rating (0 to 100 scale): 80
[23]; [28]
  Wheat plant response rating (0-100): 90
[23]; [29]
  Wheat plant response rating (0 to 100 scale): 90
[24]
  Plant response rating, Barnyardgrass (0 to 100 scale, 0 is no effect and 100 is complete control): 75
[25]
  Plant response rating, Ducksalad (0 to 100 scale, 0 is no effect and 100 is complete control): 95
[26]
  Plant response rating, Rice (0 to 100 scale, 0 is no effect and 100 is complete control): 65
[27]
  Plant response rating, Sedge, Umbrella (0 to 100 scale, 0 is no effect and 100 is complete control): 100
